Measured values reported in patent US12378250B2, “Tricyclic compound as IRAK4 inhibitor” (KOREA RESEARCH INSTITUTE OF CHEMICAL TECHNOLOGY, priority 2018, dated 2025).

How the values were obtained:
[1] = biological target: T1, IRAK4 enzyme (Homo sapiens, UniProt Q9NWZ3); experiment: IRAK4 enzyme inhibition degree (bead-based kinase assay, peptide substrate BMKC-2, 100 μM ATP); assay type: biochemical; conditions: for inhibition at 1 µM: compound 1 μM
T1 sequence (Q9NWZ3 1-460): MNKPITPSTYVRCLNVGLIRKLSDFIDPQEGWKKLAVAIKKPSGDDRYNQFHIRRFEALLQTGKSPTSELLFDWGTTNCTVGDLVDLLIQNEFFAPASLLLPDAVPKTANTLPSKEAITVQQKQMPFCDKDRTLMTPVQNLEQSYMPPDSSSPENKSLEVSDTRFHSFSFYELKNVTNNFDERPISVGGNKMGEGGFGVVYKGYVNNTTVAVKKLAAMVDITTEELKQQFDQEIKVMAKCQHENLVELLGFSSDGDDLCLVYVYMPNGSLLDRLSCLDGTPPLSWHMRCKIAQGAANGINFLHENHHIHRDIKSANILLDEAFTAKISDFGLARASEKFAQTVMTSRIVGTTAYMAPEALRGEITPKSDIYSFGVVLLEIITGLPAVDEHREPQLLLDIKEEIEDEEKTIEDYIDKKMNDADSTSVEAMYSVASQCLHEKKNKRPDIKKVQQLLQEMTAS
In short: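 IRAK4 (0.4 ng/μl stock) preincubated 10 min with compound, then 6 μM BMKC-2 peptide with 100 μM ATP (mix concentrations) for 60 min at room temperature; EDTA stop. Phospho-Thr antibody with AlphaScreen donor/acceptor beads detected product; % inhibition versus controls, IC50 by non-linear regression.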

[2] = tested on: IFN-α secretion, peripheral blood mononuclear cells (PBMCs); experiment: Suppression of IFN-α secretion in ODN2216-treated PBMCs (ELISA); assay type: cell-based; conditions: PBMC, 500 nM ODN2216, 72 hours, read-out: IFN-α, % inhibition degree
Protocol: (§1) Peripheral blood mononuclear cells (PBMCs) isolated from whole blood were distributed in a 96-well plate. TNF-α was aliquoted at a density of 1×10^5 cells/well, IFN-α was aliquoted at a density of 2×10^5 cells/well, and TNF-α and IFN-α were treated with a compound diluted to 4-fold of a final concentration and totally cultured for 30 minutes. TNF-α was treated with 100 ng/ml lipopolysaccharide (LPS), IFN-α was treated with 500 nM ODN2216 (CpGTLR9 stimulator), and TNF-α and IFN-α were further cultured for 24 hours and 72 hours, respectively. An enzyme-linked immunosorbent assay (ELISA) was performed on TNF-α and IFN-α using an ELISA kit manufactured by BD Biosciences and an ELISA kit manufactured by PBL Assay Science, Inc., respectively. A cell supernatant and a standard drug were put into the ELISA plates and reacted for 2 hours. The plates were washed and a measurement antibody and streptavidin-HRP were sequentially added thereto. After the plates were washed, a TMB substrate was added thereto and reacted in a dark place. The reaction was stopped by adding a stop solution thereto, and the absorbance at 450 nm and 570 nm was measured using an absorber (OPTIMax tunable microplate reader, molecular devices). The experimental results are shown in [Table 2].

[3] = tested on: NF-κB promoter, THP1-Lucia™ NF-κB cell line; experiment: NF-κB promoter inhibition, THP1-Lucia NF-κB cell line; assay type: cell-based; conditions: 100 ng/ml LPS, 24 hours, read-out: NF-κB, % inhibition degree
Protocol: (§2) A THP1-Lucia™ NF-κB cell line (Invivogen) was used in an NF-κB inhibition experiment, and a THP1-Lucia™ ISG cell line was used in an ISG inhibition experiment. In the NF-κB inhibition experiment, cells were planted at a density of 1×10^4 cells/well in a 96-well plate, and in the ISG inhibition experiment, cells were planted at a density of 2×10^4 cells/well in a 96-well plate. The cells were treated with a compound diluted to 4-fold of a final concentration, and totally cultured for 30 minutes. NF-κB was treated with 100 ng/ml lipopolysaccharide (LPS), ISG was treated with a stimulator of 1 μg/ml Poly(dA:dT)/LyoVec, and NF-κB and ISG were cultured for 24 hours. 10 μl of a cell supernatant was taken and transferred to a 96-well plate. 50 μl of a Quanti-luc solution was aliquoted using an automatic aliquoter of a measurer (Envision Multilabel Plate Reader, Perkin Elmer, Inc.), and light emission signals were measured.

[4] = tested on: TNF-α secretion, peripheral blood mononuclear cells (PBMCs); experiment: Suppression of TNF-α secretion in LPS-treated PBMCs (ELISA); assay type: cell-based; conditions: PBMC, 100 ng/ml LPS, 24 hours, read-out: TNF-α, % inhibition degree
Protocol: as §1

[5] = tested on: TNF-α in serum, LPS-induced systemic inflammatory disease; experiment: Suppressive effects on LPS-induced systemic inflammatory disease in mice (serum TNF-α); assay type: in vivo, C57BL/6 mice; conditions: doses of 50 and 100 mg/kg, oral, 2 hours prior to LPS 15 mg/kg i.p.
Protocol: As experimental animals, 8-week-old C57BL/6 (20 to 23 g) mice were supplied from Orient Bio Co., Ltd. (Seongnam, Gyeonggi-do) and used. The mice were acclimatized for 2 weeks or more in an animal room of the Korea Research Institute of Chemical Technology, where temperature (22±1° C.) and humidity (50±10%) were automatically adjusted, and then used for experiments, and allowed to freely ingest water and feed. This animal experiment was performed with the approval of the Animal Care and Use Committee of the Korea Research Institute of Chemical Technology. A systemic inflammatory disease was induced by administering a dose of 15 mg/kg lipopolysaccharide (LPS, Sigma L2880) intraperitoneally to the mice. A test drug was suspended in a 10% Cremophor solution and administered orally 2 hours prior to LPS injection, the mice were anesthetized with isoflurane 1 hour after LPS administration, and blood was collected from the heart. Serum was obtained by centrifuging the collected blood at 13,000 rpm for 15 minutes, store at −20° C., and then taken if needed to measure the content of cytokine (TNF-α) in serum using an ELISA kit manufactured by BD Biosciences. […]

[6] = tested on: ISG promoter, THP1-Lucia™ ISG cell line; experiment: ISG promoter inhibition, THP1-Lucia ISG cell line; assay type: cell-based; conditions: 1 μg/ml Poly(dA:dT)/LyoVec, 24 hours, read-out: ISG, % inhibition degree
Protocol: as §2

| SMILES | inhibition at 1 µM [1] [%] | inhibition at 0.1 µM [2] [%] | inhibition at 1 µM [2] [%] | inhibition at 0.1 µM [3] [%] | inhibition at 1 µM [3] [%] | inhibition at 0.1 µM [4] [%] | inhibition at 1 µM [4] [%] | suppressive effect on systemic inflammation (serum TNF-α) compared to PF-06650833 [5] | inhibition at 0.1 µM [6] [%] | inhibition at 1 µM [6] [%] | IC50 [1] [nM] |
| --- | --- | --- | --- | --- | --- | --- | --- | --- | --- | --- | --- |
| COc1cncc(-c2ccc3[nH]c4ncnc(N[C@H]5CC[C@H](N6CCOCC6)CC5)c4c3c2)c1 [Compound 6aad, 6-(5-methoxypyridin-3-yl)-N-(trans-4-morpholinocyclohexyl)-9H-pyrimido[4,5-b]indole-4-amine] | 100 | 31 | 104 | 33 | 78 | 42 | 105 | better suppressive effect than PF-06650833 | 37 | 79 |  |
| COc1cccc(-c2ccc3[nH]c4ncnc(N[C@H]5CC[C@H](N6CCOCC6)CC5)c4c3c2)c1 [Compound 6aaj, 6-(3-methoxyphenyl)-N-(trans-4-morpholinocyclohexyl)-9H-pyrimido[4,5-b]indole-4-amine] | 99 | 6.4 | 56 | < 1 | 33 | 3.2 | 30 |  | 14 | 20 | 159 |
| Cn1cc(-c2ccc3[nH]c4ncnc(N[C@H]5CC[C@H](N6CCN(S(C)(=O)=O)CC6)CC5)c4c3c2)cn1 [Compound 6aca, 6-(1-methyl-1H-pyrazol-4-yl)-N-(trans-4-(4-(methylsulfonyl)piperazin-1-yl)cyclohexyl)-9H-pyrimido[4,5-b]indole-4-amine] | 100 | 40 | 99 | 28 | 85 | 29 | 107 |  | 23 | 73 | 13.8 |
